Test results as given in BindingDB's records for doi:10.1111/cbdd.12324 (Y.B. Chavan College of Pharmacy, 2014).

What was measured:
[1] = target: T1, Prostaglandin G/H synthase 1 (Ovis aries, UniProt P05979); assay: Cyclooxygenase (COX) Inhibition Assay; settings: 37 °C
T1 sequence (P05979 whole entry): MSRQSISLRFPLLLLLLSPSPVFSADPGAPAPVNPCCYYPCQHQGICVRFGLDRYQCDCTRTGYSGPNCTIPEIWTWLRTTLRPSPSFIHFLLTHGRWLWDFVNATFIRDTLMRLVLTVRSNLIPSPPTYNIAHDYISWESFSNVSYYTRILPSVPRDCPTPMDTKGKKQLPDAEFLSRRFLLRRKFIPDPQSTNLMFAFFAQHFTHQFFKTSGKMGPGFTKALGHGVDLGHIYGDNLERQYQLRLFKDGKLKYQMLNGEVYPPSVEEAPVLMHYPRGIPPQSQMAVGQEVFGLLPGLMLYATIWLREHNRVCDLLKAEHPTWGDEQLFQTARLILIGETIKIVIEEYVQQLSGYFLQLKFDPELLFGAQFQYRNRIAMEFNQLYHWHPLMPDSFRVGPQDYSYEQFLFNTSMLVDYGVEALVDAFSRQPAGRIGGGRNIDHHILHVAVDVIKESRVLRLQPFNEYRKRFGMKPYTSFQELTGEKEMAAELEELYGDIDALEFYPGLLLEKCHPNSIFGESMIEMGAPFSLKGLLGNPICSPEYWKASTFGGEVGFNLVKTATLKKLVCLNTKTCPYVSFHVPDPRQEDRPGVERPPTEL
Procedure: (§1) The COX-1/COX-2 inhibition assay was done using an enzyme immunoassay (EIA) kit. The reaction buffer (960 uL), containing 0.1 M Tris-HCl (pH 8.0), 5 mM EDTA and 2 mM phenol, with either COX-1 or COX-2 (10 uL) enzyme in the presence of heme (10 uL) was added 10 uL of various concentrations of test drug solutions (0.01, 0.1, 1, 10, 50, and 100 uM in a final volume of 1 mL). The reaction was incubated for 5 min at 37 uC, followed by the addition of 10 uL of AA (100 uM) solution. The reaction was stopped by the addition of 50 uL of 1M HCl after 2 min.

[2] = target: T2, Prostaglandin G/H synthase 2 (Ovis aries, UniProt P79208); assay: Cyclooxygenase (COX) Inhibition Assay; settings: 37 °C
T2 sequence (P79208 whole entry): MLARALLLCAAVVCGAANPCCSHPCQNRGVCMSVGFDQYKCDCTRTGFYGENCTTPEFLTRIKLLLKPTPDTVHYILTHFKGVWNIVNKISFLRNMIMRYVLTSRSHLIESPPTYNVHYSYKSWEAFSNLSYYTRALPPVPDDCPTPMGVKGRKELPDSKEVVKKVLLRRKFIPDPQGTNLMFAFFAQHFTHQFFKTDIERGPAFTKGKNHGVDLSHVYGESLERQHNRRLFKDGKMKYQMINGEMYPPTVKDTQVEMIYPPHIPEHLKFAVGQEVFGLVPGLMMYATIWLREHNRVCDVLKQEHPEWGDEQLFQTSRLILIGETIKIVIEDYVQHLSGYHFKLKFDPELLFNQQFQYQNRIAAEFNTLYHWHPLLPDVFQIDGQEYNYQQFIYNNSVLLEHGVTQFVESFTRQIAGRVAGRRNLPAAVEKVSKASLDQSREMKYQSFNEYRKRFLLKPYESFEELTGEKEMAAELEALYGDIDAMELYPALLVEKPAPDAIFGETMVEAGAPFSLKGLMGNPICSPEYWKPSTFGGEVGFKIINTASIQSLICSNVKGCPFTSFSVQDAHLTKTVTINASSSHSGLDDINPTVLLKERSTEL
Procedure: as §1

Row | IC50 [1] | IC50 [2] | SMILES
1 | > 100 µM | 50.7 µM | Cc1[nH]n(-c2ccccc2)c(=O)c1CN=C(N)N [1-((3-methyl-5-oxo-1-phenyl-4,5-dihydro-1H-pyrazol-4-yl)methyl)guanidine (5e)]
2 | 80 µM | 0.2 µM | Cc1[nH]n(-c2ccccc2)c(=O)c1CNC(=S)Nc1ccccc1 [1-[(3-methyl-5-oxo-1-phenyl-4,5-dihydro-1H-pyrazol-4-yl)methyl]-3-phenylthiourea (5d)]
3 | > 100 µM | 85 µM | Cc1[nH]n(-c2ccccc2)c(=O)c1CNC(N)=S [1-[(3-methyl-5-oxo-1-phenyl-4,5-dihydro-1H-pyrazol-4-yl)methyl]thiourea (5c)]

Further lines, the compound ahead of its results:

Row | SMILES | IC50 [1] | IC50 [2]
4 | Cc1[nH]n(-c2ccccc2)c(=O)c1CNC(=O)Nc1ccc(Cl)cc1 [1-(4-chlorophenyl)-3-[(3-methyl-5-oxo-1-phenyl-4,5-dihydro-1H-pyrazol-4-yl)methyl]urea (5b)] | > 100 µM | > 100 µM
5 | Cc1[nH]n(-c2ccccc2)c(=O)c1CNC(N)=O [1-[(3-methyl-5-oxo-1-phenyl-4,5-dihydro-1H-pyrazol-4-yl)methyl]urea (5a)] | > 100 µM | 2.3 µM
6 | Cc1[nH]n(-c2ccccc2)c(=O)c1CNc1ccc(S(N)(=O)=O)cc1 [4-{[(3-methyl-5-oxo-1-phenyl-4,5-dihydro-1H-pyrazol-4-yl)methyl]amino} benzene sulfonamide (5f)] | > 100 µM | 1 µM
7 | Cc1cc(=O)n(-c2ccccc2)[nH]1 [MLS000069602] | > 100 µM | 35 µM
8 | Cc1[nH]n(-c2ccccc2)c(=O)c1CNC(=O)NN [N-[(3-methyl-5-oxo-1-phenyl-4,5-dihydro-1H-pyrazol-4yl)methyl] hydrazine carboxamide (5g)] | > 100 µM | > 100 µM
